From patent US10112935B2, “Indazolyl thiadiazolamines and related compounds for inhibition of Rho-associated protein kinase and the treatment of disease” (Lycera Corporation, priority 2015, dated 2018)

Tests used:
[1] = target: GST-tagged human ROCK1 catalytic domain 1-477 (Homo sapiens (Human), UniProt Q13464); test: Inhibition of Rho-associated protein kinase isoform 1 (LANCE Ultra ULight-CREBtide FRET kinase assay); type: biochemical; details: 30 μM was the highest concentration analyzed
Summary of the method: (§1)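 Baculovirus-expressed kinase phosphorylated ULight-CREBtide for 90 min at room temperature before the reaction was stopped with 10 mM EDTA. Phospho-substrate was detected by TR-FRET with 1 nM Europium-anti-phospho-CREB (Ser133) antibody after 60 min at room temperature.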

[2] = target: GST-tagged human ROCK2 catalytic domain 1-553 (Homo sapiens (Human), UniProt O75116); test: Inhibition of Rho-associated protein kinase isoform 2 (LANCE Ultra ULight-CREBtide FRET kinase assay); type: biochemical; details: for IC50: 30 μM was the highest concentration analyzed; for Selectivity for ROCK2 over ROCK1 (IC50 ROCK1 / IC50 ROCK2): selectivity ROCK2 vs ROCK1
GST-tagged human ROCK2 catalytic domain 1-553, sequence (O75116 1-553): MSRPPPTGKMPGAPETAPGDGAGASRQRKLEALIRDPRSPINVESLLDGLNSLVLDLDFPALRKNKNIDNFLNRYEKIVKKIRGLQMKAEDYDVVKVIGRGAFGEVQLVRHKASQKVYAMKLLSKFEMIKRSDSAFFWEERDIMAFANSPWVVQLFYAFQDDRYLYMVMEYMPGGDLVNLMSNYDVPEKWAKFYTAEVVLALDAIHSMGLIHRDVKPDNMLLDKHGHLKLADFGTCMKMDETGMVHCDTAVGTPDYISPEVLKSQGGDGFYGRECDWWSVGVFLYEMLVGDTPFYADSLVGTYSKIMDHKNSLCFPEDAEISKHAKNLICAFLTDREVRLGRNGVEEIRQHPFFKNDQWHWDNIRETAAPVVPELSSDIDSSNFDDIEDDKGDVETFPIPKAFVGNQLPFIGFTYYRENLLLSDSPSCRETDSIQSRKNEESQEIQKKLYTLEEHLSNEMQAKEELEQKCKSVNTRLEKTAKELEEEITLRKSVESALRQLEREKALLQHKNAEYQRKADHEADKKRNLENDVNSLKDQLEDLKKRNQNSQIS
Summary of the method: as §1

[3] = system: ROCK; details: porcine, IL-1 beta-induced; cited from earlier work
[4] = system: ROCK; details: rat stroke model; cited from earlier work

GST-tagged human ROCK1 catalytic domain 1-477, sequence (Q13464 1-477): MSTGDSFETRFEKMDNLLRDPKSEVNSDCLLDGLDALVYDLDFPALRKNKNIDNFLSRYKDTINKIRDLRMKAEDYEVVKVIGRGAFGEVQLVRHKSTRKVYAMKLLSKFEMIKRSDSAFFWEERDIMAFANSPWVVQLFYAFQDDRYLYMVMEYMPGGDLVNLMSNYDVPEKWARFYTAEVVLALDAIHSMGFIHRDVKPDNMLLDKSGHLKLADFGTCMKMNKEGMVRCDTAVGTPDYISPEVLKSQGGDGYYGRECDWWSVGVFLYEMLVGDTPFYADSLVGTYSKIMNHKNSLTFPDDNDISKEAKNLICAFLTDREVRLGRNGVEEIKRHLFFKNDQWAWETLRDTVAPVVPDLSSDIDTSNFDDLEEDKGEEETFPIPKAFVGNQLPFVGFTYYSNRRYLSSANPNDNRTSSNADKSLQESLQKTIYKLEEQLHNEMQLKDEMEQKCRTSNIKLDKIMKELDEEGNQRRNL

SMILES	IC50 [1]	IC50 [2]	Selectivity for ROCK2 over ROCK1 (IC50 ROCK1 / IC50 ROCK2) [2]	coronary stenosis [3]	infarct size and neurologic deficit [4]
c1cc2[nH]ncc2cc1Nc1nnc(N2CCNCC2)s1 [Example A-48]	1 to 15 µM	1 to 15 µM	<5	–	–
O=C(Nc1cccc(-c2nnc(Nc3ccc4[nH]ncc4c3)s2)c1)c1c[nH]cn1 [Example A-49]	> 30 µM	< 1 µM	>100	–	–
O=C(Nc1cccc(-c2nnc(Nc3ccc4[nH]ncc4c3)s2)c1)c1cccnc1 [Example A-50]	> 30 µM	< 1 µM	>100	–	–
O=S(=O)(c1cccc2cnccc12)N1CCCNCC1 [fasudil]	–	–	–	progressively reduce coronary stenosis	reduce both the infarct size and neurologic deficit
